This assay has as its target PAFR (Homo sapiens, UniProt P25105). In words: PAF Binding Assay (PAFR binding).
Chain of PAFR (P25105 whole entry): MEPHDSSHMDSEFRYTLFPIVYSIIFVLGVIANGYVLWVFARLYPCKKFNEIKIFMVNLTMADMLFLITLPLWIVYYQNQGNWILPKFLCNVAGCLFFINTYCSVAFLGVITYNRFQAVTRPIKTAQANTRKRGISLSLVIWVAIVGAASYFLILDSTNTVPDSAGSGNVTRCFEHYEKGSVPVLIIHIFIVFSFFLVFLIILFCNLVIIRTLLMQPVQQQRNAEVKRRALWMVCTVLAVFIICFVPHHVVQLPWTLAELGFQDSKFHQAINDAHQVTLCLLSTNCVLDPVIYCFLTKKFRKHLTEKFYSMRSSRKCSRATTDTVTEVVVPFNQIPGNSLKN
In turn, `CCc1cc(-c2cccn3ccnc23)ccc1S(=O)(=O)N[C@H]1CCC[C@@H](n2cnnc2)C1` [Compound 2d, 2-ethyl-4-imidazo[1,2-a]pyridin-8-yl-N-[(1S,3R)-3-(4H-1,2,4-triazol-4-yl)cyclohexyl]benzenesulfonamide] gave a half-maximal inhibitory concentration (IC50) of 3.9 nM. Next, `O=S(=O)(N[C@H]1CCC[C@@H](n2cnnc2)C1)c1cc(-c2cccc3nccn23)cc(C(F)(F)F)c1` [Compound 3Aaa, 3-imidazo[1,2-a]-pyridin-5-yl-N-[(1S,3R)-3-(4H-1,2,4-triazol-4-yl)cyclohexyl]-5-(trifluoromethyl)benzenesulfonamide]: 13 nM.

As for `O=S(=O)(N[C@H]1CCC[C@@H](n2cnnc2)C1)c1cc(-c2cc(Cl)cnc2F)cc(C(F)(F)F)c1` [Compound 3Aab, 3-(5-chloro-2-fluoropyridin-3-yl)-N-[(1S,3R)-3-(4H-1,2,4-triazol-4-yl)cyclohexyl]-5-(trifluoromethyl)benzenesulfonamide], the IC50 worked out at 4 nM. Next, `O=S(=O)(N[C@H]1CCC[C@@H](n2cnnc2)C1)c1cc(-c2cncc(F)c2)cc(C(F)(F)F)c1` [Compound 3Aac, 3-(5-fluoropyridin-3-yl)-N-[(1S,3R)-3-(4H-1,2,4-triazol-4-yl)cyclohexyl]-5-(trifluoromethyl)benzenesulfonamide]: 20 nM.

`O=S(=O)(N[C@H]1CCC[C@@H](n2cnnc2)C1)c1cc(-c2cccc3ccc(OCC(F)(F)F)nc23)cc(C(F)(F)F)c1` [Compound 3Aad, N-[(1S,3R)-3-(4H-1,2,4-triazol-4-yl)cyclohexyl]-3-[2-(2,2,2-trifluoroethoxy)quinolin-8-yl]-5-(trifluoromethyl)benzenesulfonamide] showed an IC50 of 4 nM. In the case of `O=S(=O)(N[C@H]1CCC[C@@H](n2cnnc2)C1)c1cc(-c2cc3ccccc3o2)cc(C(F)(F)F)c1` [Compound 3Aae, 3-(1-benzofuran-2-yl)-N-[(1S,3R)-3-(4H-1,2,4-triazol-4-yl)cyclohexyl]-5-(trifluoromethyl)benzenesulfonamide], the IC50 was 1.8 nM. Next, `O=S(=O)(N[C@H]1CCC[C@@H](n2cnnc2)C1)c1cc(-c2cc3ccccc3s2)cc(C(F)(F)F)c1` [Compound 3Aaf, 3-(1-benzothien-2-yl)-N-[(1S,3R)-3-(4H-1,2,4-triazol-4-yl)cyclohexyl]-5-(trifluoromethyl)benzenesulfonamide]: 1.2 nM; `O=S(=O)(N[C@H]1CCC[C@@H](n2cnnc2)C1)c1cc(-c2ccc3ccc(OCC(F)(F)F)nc3c2)cc(C(F)(F)F)c1` [Compound 3Aag, N-[(1S,3R)-3-(4H-1,2,4-triazol-4-yl)cyclohexyl]-3-[2-(2,2,2-trifluoroethoxy)quinolin-7-yl]-5-(trifluoromethyl)benzenesulfonamide]: 4.9 nM.

As for `O=S(=O)(N[C@H]1CCC[C@@H](n2cnnc2)C1)c1cc(-c2ccc3nc(C(F)(F)F)nn3n2)cc(C(F)(F)F)c1` [Compound 3Aah, N-[(1S,3R)-3-(4H-1,2,4-triazol-4-yl)cyclohexyl]-3-(trifluoromethyl)-5-[2-(trifluoromethyl)[1,2,4]triazolo[1,5-b]pyridazin-6-yl]benzenesulfonamide], the IC50 is 18 nM. For `Cc1cn2nc(-c3cc(C(F)(F)F)cc(S(=O)(=O)N[C@H]4CCC[C@@H](n5cnnc5)C4)c3)ccc2n1` [Compound 3Aai, 3-(2-methylimidazo[1,2-b]pyridazin-6-yl)-N-[(1S,3R)-3-(4H-1,2,4-triazol-4-yl)cyclohexyl]-5-(trifluoromethyl)benzenesulfonamide], the IC50 came out at 4.1 nM.

The compound `O=S(=O)(N[C@H]1CCC[C@@H](n2cnnc2)C1)c1cc(-c2ccc3nc(C(F)(F)F)cn3n2)cc(C(F)(F)F)c1` [Compound 3Aaj, N-[(1S,3R)-3-(4H-1,2,4-triazol-4-yl)cyclohexyl]-3-(trifluoromethyl)-5-[2-(trifluoromethyl)imidazo[1,2-b]pyridazin-6-yl]benzenesulfonamide] gave an IC50 of 27 nM.
